What was measured:
Assay in all cases: relative viability (nuclei count vs DMSO), 5 days (fraction); higher = more cells survive
[1] = compound: COC1=CC=C(C=C1)CN2C=CC3=C2C=C(C=C3)C(=O)NO + CCNC(=O)c1noc(-c2cc(C(C)C)c(O)cc2O)c1-c1ccc(CN2CCOCC2)cc1 [Luminespib] (partner 0.01 µM)
Method in brief: (§1)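 A single step with final 0.05% Triton X-100, 1% formaldehyde and 1 ug/ml Hoechst fixed the cells and stained nuclei 5 days after treatment. Lung cancer cell lines in 1536-well plates had been treated by pin tool the day after seeding with one drug alone or a fixed anchor-drug dose plus five library-drug doses (not always all listed) in √10 steps, and nuclei were counted on 4× images. Relative viability is the ratio of nuclei in treated wells to nuclei in vehicle wells, taken as the median of duplicate plates.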

[2] = compound: COC1=CC=C(C=C1)CN2C=CC3=C2C=C(C=C3)C(=O)NO + Nc1nc2[nH]cc(CCc3ccc(C(=O)N[C@@H](CCC(=O)O)C(=O)O)cc3)c2c(=O)[nH]1 [Pemetrexed] (partner 0.2 µM)
Method in brief: as §1

Veliparib + OSI-027 = compound: C[C@]1(c2nc3c(C(N)=O)cccc3[nH]2)CCCN1 [Veliparib] + COc1cccc2cc(-c3nc([C@H]4CC[C@H](C(=O)O)CC4)n4ncnc(N)c34)[nH]c12 [OSI-027] (partner 0.5 µM)
Method in brief: as §1

[3] = compound: COC1=CC=C(C=C1)CN2C=CC3=C2C=C(C=C3)C(=O)NO + C[C@@H](Oc1cc(-c2cnn(C3CCNCC3)c2)cnc1N)c1c(Cl)ccc(F)c1Cl [Crizotinib] (partner 1 µM)
Method in brief: as §1

Cell Line | relative viability ([1]; first compound 0.08 µM) | relative viability ([1]; first compound 0.253 µM) | relative viability ([1]; first compound 0.8 µM) | relative viability ([1]; first compound 2.53 µM) | relative viability ([1]; first compound 8 µM) | relative viability ([2]; first compound 0.08 µM) | relative viability ([2]; first compound 0.253 µM) | relative viability ([2]; first compound 0.8 µM) | relative viability ([2]; first compound 2.53 µM) | relative viability ([2]; first compound 8 µM) | relative viability (Veliparib + OSI-027; first compound 0.02 µM) | relative viability (Veliparib + OSI-027; first compound 0.06325 µM) | relative viability (Veliparib + OSI-027; first compound 0.2 µM) | relative viability (Veliparib + OSI-027; first compound 0.6325 µM) | relative viability (Veliparib + OSI-027; first compound 2 µM) | relative viability ([3]; first compound 0.08 µM) | relative viability ([3]; first compound 0.253 µM) | relative viability ([3]; first compound 0.8 µM) | relative viability ([3]; first compound 2.53 µM) | relative viability ([3]; first compound 8 µM)
NCI-H441 | 0.27 | 0.322 | 0.37 | 0.422 | 0.322 | 0.26 | 0.264 | 0.273 | 0.278 | 0.261 | 0.622 | 0.539 | 0.553 | 0.585 | 0.617 | 1.25 | 0.835 | 0.862 | 0.787 | 0.597
NCI-H460 | 0.0291 | 0.0369 | 0.0487 | 0.0276 | 0.0281 | 0.0617 | 0.058 | 0.0547 | 0.0598 | 0.0652 | 0.677 | 0.63 | 0.621 | 0.583 | 0.632 | 0.774 | 0.959 | 0.846 | 0.882 | 0.917
NCI-H520 | – | 0.207 | 0.193 | 0.227 | 0.226 | 0.525 | 0.743 | 0.641 | 0.661 | 0.648 | 0.224 | 0.309 | 0.276 | 0.231 | 0.234 | 0.321 | 0.834 | 0.776 | 0.723 | 0.736
NCI-H596 | 0.934 | 0.955 | 0.972 | 1.01 | 0.863 | 0.42 | 0.501 | 0.5 | 0.469 | 0.492 | 0.805 | 0.696 | 0.779 | 0.783 | 0.68 | 1.05 | 0.961 | 0.963 | 0.868 | 1.01
NCI-H647 | 0.23 | 0.216 | 0.226 | 0.185 | 0.111 | 0.142 | 0.154 | 0.149 | 0.166 | 0.231 | 0.662 | 0.479 | 0.618 | 0.605 | 0.648 | 0.868 | 1 | 1.04 | 0.914 | 1.01
NCI-H650 | 0.816 | 0.758 | 0.774 | 0.745 | 0.574 | 0.864 | 1.03 | 0.89 | 0.892 | 0.888 | 0.436 | 0.415 | 0.543 | 0.48 | 0.55 | 0.378 | 0.832 | 0.68 | 0.71 | 0.656
NCI-H661 | – | 0.873 | 0.883 | 0.88 | 0.765 | – | 0.889 | 0.836 | 0.957 | 0.954 | 0.751 | 0.704 | 0.743 | 0.669 | 0.657 | – | 0.814 | 1.08 | 1.05 | 1
NCI-H838 | – | 0.315 | 0.364 | 0.354 | 0.381 | 0.232 | 0.27 | 0.244 | 0.234 | 0.257 | 0.419 | 0.328 | 0.409 | 0.296 | 0.372 | – | 0.911 | 0.882 | 0.853 | 0.829
NCI-H1355 | – | 0.834 | 0.776 | 0.7 | 0.522 | 0.538 | 1.06 | 0.978 | 1.06 | 0.998 | – | 0.323 | 0.448 | 0.357 | 0.355 | 0.913 | 1.2 | 1.02 | 1.12 | 0.977
